The values that follow come from ChEMBL document CHEMBL1909046, “DrugMatrix in vitro pharmacology data”.

Assay [1] has as its target Prostaglandin G/H synthase 1 (Homo sapiens, UniProt P23219). The experiment in a line: biochemical. It counts as tissue-based, Platelet. Conditions: platelet.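 Note: inhibition of COX-1 enzyme activity, with arachidonic acid supplied as substrate; in other assays of this panel Not Active means under 50% inhibition at 10 µM.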
Assay [2] has as its target Protein kinase C alpha type (Homo sapiens, UniProt P17252). It counts as cell-based. Particulars: sf9.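 Note: inhibition of PKCalpha kinase activity measured in an enzyme assay with histone as the phosphorylation substrate; in other assays of this panel Not Active means under 50% inhibition at 10 µM.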
A further assay concerns the target Glycine receptor (Rattus norvegicus, UniProt P22771+P24524+P07727+P20781). It counts as cell membranes, Wistar, Spinal cord, Membrane.
A further assay addresses T1, Calcitonin receptor (Homo sapiens, UniProt P30988).
T1 sequence (P30988 whole entry): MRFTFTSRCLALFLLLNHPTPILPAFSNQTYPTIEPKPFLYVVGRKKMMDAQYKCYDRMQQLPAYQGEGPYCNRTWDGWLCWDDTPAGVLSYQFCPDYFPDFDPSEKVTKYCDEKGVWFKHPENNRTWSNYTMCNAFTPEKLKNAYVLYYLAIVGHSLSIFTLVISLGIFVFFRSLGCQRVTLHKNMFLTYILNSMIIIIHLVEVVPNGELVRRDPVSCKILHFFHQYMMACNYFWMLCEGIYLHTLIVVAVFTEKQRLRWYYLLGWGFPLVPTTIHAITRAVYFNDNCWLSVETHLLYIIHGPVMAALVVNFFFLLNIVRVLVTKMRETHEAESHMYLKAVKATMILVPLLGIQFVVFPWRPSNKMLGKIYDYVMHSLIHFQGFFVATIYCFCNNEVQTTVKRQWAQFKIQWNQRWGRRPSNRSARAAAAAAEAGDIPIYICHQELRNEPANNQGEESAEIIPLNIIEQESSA
It counts as cell membranes, Membrane. Particulars: t47d.

The target of assay [3] is T2, Alpha-1A adrenergic receptor (Rattus norvegicus, UniProt P43140).
T2 sequence (P43140 whole entry): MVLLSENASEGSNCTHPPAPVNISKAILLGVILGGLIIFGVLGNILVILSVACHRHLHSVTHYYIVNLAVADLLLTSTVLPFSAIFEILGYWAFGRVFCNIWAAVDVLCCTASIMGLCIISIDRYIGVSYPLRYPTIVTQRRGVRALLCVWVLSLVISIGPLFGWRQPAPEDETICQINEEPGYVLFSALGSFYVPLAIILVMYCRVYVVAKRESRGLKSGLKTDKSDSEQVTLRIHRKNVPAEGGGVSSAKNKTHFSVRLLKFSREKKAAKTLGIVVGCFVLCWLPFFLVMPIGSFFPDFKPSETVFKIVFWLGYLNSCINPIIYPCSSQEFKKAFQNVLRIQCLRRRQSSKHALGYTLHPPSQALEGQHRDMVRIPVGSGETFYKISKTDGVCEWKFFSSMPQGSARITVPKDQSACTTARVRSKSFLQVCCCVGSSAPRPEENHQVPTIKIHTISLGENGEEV
The experiment in a line: DRUGMATRIX: Alpha-1A adrenergic receptor radioligand binding (ligand: prazosin). Conditions: Not Active = under 50% inhibition at 10 µM. It counts as cell membranes, Wistar, Submaxillary gland, Membrane.

Assay [4] concerns the target T3, Alpha-1D adrenergic receptor (Homo sapiens, UniProt P25100). Note: in other assays of this panel Not Active means under 50% inhibition at 10 µM.
T3 sequence (P25100 whole entry): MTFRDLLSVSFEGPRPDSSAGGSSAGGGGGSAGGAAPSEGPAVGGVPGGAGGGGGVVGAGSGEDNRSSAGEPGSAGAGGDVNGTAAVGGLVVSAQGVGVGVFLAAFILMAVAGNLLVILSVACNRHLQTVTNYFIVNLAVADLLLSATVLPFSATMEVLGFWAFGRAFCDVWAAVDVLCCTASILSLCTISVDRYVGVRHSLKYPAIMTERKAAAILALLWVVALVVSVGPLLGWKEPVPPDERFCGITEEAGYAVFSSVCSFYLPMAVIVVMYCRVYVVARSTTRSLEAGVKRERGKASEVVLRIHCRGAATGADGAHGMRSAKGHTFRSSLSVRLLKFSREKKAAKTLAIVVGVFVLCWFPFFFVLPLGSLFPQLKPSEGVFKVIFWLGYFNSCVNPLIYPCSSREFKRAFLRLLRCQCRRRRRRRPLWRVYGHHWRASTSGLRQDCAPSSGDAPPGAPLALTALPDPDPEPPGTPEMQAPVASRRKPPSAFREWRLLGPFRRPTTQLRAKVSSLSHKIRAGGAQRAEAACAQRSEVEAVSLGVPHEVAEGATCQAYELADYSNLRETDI
It counts as cell membranes, HEK293, Membrane. Conditions: hek293.

In assay [5] the target is Beta-3 adrenergic receptor (Homo sapiens, UniProt P13945). Briefly: DRUGMATRIX: Adrenergic beta3 radioligand binding (ligand: [125I] Cyanopindolol). It counts as cell membranes, HEK293, Membrane. Conditions: hek293; Not Active = under 50% inhibition at 10 µM.
The next assay deals with T4, D(4) dopamine receptor (Homo sapiens, UniProt P21917).
T4 sequence (P21917 whole entry): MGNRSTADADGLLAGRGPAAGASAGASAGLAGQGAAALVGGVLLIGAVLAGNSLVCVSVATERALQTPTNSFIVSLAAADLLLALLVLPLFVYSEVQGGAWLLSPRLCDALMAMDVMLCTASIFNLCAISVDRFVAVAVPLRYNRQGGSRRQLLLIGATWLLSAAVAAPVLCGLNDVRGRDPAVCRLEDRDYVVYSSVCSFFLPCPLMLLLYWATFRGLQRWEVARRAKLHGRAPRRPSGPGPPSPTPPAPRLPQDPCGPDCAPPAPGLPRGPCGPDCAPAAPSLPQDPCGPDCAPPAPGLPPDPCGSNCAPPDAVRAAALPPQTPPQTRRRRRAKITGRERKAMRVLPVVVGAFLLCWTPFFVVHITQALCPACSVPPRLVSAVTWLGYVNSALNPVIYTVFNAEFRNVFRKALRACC
The experiment in a line: DRUGMATRIX: Dopamine D4.2 radioligand binding (ligand: [3H] Spiperone). It counts as cell membranes, CHO-K1, Membrane. Particulars: cho-k1; Not Active = under 50% inhibition at 10 µM.

Assay [6] can be described thus: DRUGMATRIX: Phosphodiesterase PDE4 enzyme inhibition (substrate: [3H]cAMP + cAMP). Conditions: u-937; Not Active = under 50% inhibition at 10 µM.
For assay [7], the target named is Epidermal growth factor receptor (Homo sapiens, UniProt P00533). Briefly: DRUGMATRIX: Protein Tyrosine Kinase, EGF Receptor enzyme inhibition (substrate: Poly(Glu:Tyr)). The format is cell-based, Insect cells. Conditions: insect cells; Not Active = under 50% inhibition at 10 µM.
Assay [8] is described as follows: DRUGMATRIX: Sodium/nucleoside co-transporter radioligand binding (ligand: nitrobenzylthioinosine). Particulars: Not Active = under 50% inhibition at 10 µM. The format is cell membranes, Cavia porcellus, Dunkin-Hartley, Cerebral cortex, Membrane.
The target of another assay is T5, Cathepsin G (Homo sapiens, UniProt P08311).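 Note: inhibition of Cathepsin G enzyme activity, tested on an AMC-conjugated peptide substrate; in other assays of this panel Not Active means under 50% inhibition at 10 µM.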
T5 sequence (P08311 whole entry): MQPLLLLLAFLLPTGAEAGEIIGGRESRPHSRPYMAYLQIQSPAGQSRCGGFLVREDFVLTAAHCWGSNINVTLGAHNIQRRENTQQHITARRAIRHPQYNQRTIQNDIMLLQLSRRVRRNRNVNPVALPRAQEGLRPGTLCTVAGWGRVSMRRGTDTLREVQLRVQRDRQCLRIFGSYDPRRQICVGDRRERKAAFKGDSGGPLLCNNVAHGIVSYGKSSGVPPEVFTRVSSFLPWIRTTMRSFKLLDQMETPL
The format is tissue-based. Particulars: neutrophil.

Chain of Prostaglandin G/H synthase 1 (P23219 whole entry): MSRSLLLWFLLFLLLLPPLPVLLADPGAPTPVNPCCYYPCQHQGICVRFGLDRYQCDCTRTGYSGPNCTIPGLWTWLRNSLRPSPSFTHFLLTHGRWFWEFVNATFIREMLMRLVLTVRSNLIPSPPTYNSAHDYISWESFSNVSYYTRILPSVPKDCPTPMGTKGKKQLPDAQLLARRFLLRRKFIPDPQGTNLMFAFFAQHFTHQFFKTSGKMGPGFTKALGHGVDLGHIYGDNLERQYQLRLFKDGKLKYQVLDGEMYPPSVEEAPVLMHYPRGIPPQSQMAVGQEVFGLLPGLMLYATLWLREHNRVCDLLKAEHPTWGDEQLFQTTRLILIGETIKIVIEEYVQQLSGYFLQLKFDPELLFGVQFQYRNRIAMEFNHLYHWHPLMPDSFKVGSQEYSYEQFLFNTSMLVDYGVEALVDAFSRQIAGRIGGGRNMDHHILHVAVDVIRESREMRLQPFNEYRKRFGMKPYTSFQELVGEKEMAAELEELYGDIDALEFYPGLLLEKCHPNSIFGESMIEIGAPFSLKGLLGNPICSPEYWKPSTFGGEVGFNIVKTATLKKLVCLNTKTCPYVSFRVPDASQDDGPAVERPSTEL
Chain of Beta-3 adrenergic receptor (P13945 whole entry): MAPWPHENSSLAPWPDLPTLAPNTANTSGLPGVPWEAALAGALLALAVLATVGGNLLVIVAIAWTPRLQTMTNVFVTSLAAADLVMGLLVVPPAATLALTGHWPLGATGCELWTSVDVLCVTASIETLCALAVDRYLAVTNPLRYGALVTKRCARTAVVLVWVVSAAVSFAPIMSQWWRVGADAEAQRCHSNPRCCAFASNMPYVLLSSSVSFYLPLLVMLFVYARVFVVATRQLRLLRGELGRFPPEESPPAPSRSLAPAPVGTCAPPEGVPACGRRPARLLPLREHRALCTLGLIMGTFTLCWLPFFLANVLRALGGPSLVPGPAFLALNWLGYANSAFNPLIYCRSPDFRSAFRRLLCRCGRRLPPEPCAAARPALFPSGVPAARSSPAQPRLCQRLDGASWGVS

With `NNc1ccccc1` [PHENYLHYDRAZINE], the IC50 entry (in assay [1]; in [2]; on Glycine receptor; at Calcitonin receptor; in [3]; in assay [4]) was “Not Active” each time. Besides, the IC50 entry (in assay [5]; at D(4) dopamine receptor; in assay [6]; in [7]; in [8]; on Cathepsin G) was “Not Active” throughout. For the same molecule, the inhibitory constant (Ki) entry in assay [6] and in assay [8] was “Not Active” throughout.

For the molecule `CC[C@H]1OC(=O)[C@H](C)[C@@H](O[C@H]2C[C@@](C)(OC)[C@@H](O)[C@H](C)O2)[C@H](C)[C@@H](O[C@@H]2O[C@H](C)C[C@H](N(C)C)[C@H]2O)[C@](C)(O)C[C@@H](C)/C(=N\OCOCCOC)[C@H](C)[C@@H](O)[C@]1(C)O` [ROXITHROMYCIN], the IC50 result (in [1]; in [2]; against Glycine receptor; at Calcitonin receptor; in assay [3]; in assay [4]) was “Not Active” each time. Besides, the IC50 entry (in [5]; at D(4) dopamine receptor; in [6]; in [7]; in assay [8]; against Cathepsin G) was “Not Active” in each case. In addition, the Ki result in assay [6] and in [8] was “Not Active” in each case.

Take `Nc1ccc(S(=O)(=O)Nc2ccnn2-c2ccccc2)cc1` [SULFAPHENAZOLE]: the IC50 entry (in assay [1]; in [2]; at Glycine receptor; at Calcitonin receptor; in assay [3]; in [4]) was “Not Active” in each case. The IC50 entry (in assay [5]; at D(4) dopamine receptor; in [6]; in assay [7]; in [8]; against Cathepsin G) was “Not Active” throughout. For the same molecule, the Ki entry in assay [6] and in assay [8] was “Not Active” in each case.

In the case of `CCOC(=O)[C@H](CCc1ccccc1)N[C@@H](C)C(=O)N1[C@H](C(=O)O)C[C@@H]2CCC[C@@H]21`, the 50% inhibitory concentration (IC50) entry (in assay [1]; in [2]; against Glycine receptor; at Calcitonin receptor; in [3]; in assay [4]) was “Not Active” throughout. The IC50 result (in [5]; at D(4) dopamine receptor; in [6]; in [7]; in [8]; against Cathepsin G) was “Not Active” throughout. Moreover, the inhibition constant Ki result in assay [6] and in assay [8] was “Not Active” in each case.

Take `NCCCC[C@H](N[C@@H](CCc1ccccc1)C(=O)O)C(=O)N1CCC[C@H]1C(=O)O` [LISINOPRIL ANHYDROUS]: the half-inhibitory concentration (IC50) result (in assay [1]; in assay [2]; against Glycine receptor; on Calcitonin receptor; in [3]; in assay [4]) was “Not Active” in each case. Moreover, the IC50 result (in assay [5]; at D(4) dopamine receptor; in assay [6]; in assay [7]; in assay [8]; against Cathepsin G) was “Not Active” throughout. Also, the Ki result in [6] and in assay [8] was “Not Active” in each case.

Turning to `Cc1ccc(C(=O)C(C)CN2CCCCC2)cc1` (stereo not drawn) [TOLPERISONE], the IC50 result (in assay [1]; in assay [2]; against Glycine receptor; on Calcitonin receptor; in [3]; in assay [4]) was “Not Active” throughout. Besides, the IC50 result (in assay [5]; on D(4) dopamine receptor; in [6]; in assay [7]; in [8]; against Cathepsin G) was “Not Active” each time. Further, the Ki result in assay [6] and in assay [8] was “Not Active” throughout.

Consider IVERMECTIN, for which the IC50 (in general, the point on the concentration scale where inhibition reaches its midpoint) is “Not Active” in assay [1]; “Not Active” in assay [2]; 375 nM on Glycine receptor (read-out: IC50); “Not Active” on Calcitonin receptor; “Not Active” in assay [3]; “Not Active” in assay [4]. Also, the IC50 result (in assay [5]; at D(4) dopamine receptor; in assay [6]; in [7]; in assay [8]; at Cathepsin G) was “Not Active” throughout. In addition, the Ki (in general, the equilibrium dissociation constant of an inhibitor or competing ligand from its target) in assay [1] was “Not Active”; in assay [2], “Not Active”; on Glycine receptor (read-out: Ki), 212 nM; on Calcitonin receptor, “Not Active”; in assay [3], “Not Active”; in assay [4], “Not Active”. Besides, the Ki result (in assay [5]; on D(4) dopamine receptor; in assay [6]; in assay [7]; in assay [8]; at Cathepsin G) was “Not Active” throughout.
